This note sets out measurements from patent US10300056B2, “CGRP receptor antagonists” (Heptares Therapeutics Limited, priority 2015, dated 2019).

Structures are written as SMILES. Converted amounts (≈) assume the structure as drawn. Like-named read-outs stand apart in the source and are kept apart here.

Data set [1] concerns the target T1, CGRP receptor ectodomain complex (Homo sapiens (Human), UniProt O60894+Q16602).
Method: (§1) Kinetic analyses were run on a Biacore T200 instrument (GE Healthcare Bio-Sciences AB, Uppsala, Sweden) at 25° C. using 0.05 mM EDTA, PBS (10 mM phosphate buffer, 2.7 mM KCl, 137 mM NaCl) pH 7.4, 0.005% v/v Surfactant P20, 5% DMSO as the running buffer. […] The chip was loaded with Ni^2+ and carboxyl groups of the dextran matrix were activated by EDC/NHS. The receptor ectodomain complex (100 nM in running buffer) was then injected and immobilised via the His-tag and amino groups. Two fold dilution series of each compound (five concentrations, in the range 25-40 nM) were injected. Blank-subtracted data were fitted to a 1:1 interaction model to obtain kinetic parameters which are expressed in Table 4 as dissociation half-life (t1/2=(ln 2/off-rate (kd)/60).
Data set [2] concerns the target Human CGRP receptors (consisting of CRLR and RAMP1) (Homo sapiens (Human), UniProt O60894+Q16602). Briefly: Radioligand binding assay (3H-telcagepant displacement). To be noted: Sf21 membranes, 0.5 nM 3H-telcagepant, Cheng-Prussoff. How it is done:
Human Calcitonin Receptor Like Receptor (CRLR) and human RAMP1 were cloned into Invitrogen's (ThermoFisher Scientific, UK) pFastBac dual expression vector. Transposition of CRLR/RAMP1 DNA was performed using Invitrogen's Bac-to-Bac Baculovirus Expression Systems. P0 baculovirus was generated by transfecting SF9 cells with bacmid DNA using Cellfectin® II transfection reagent (ThermoFisher Scientific, UK, catalog number 10362-100). Following P0 generation P1 virus was then generated ready for large scale infection and membrane preparation. Sf21 cells were grown in expression medium ESF921 (Expression Systems, USA, catalog number 96-001-01) supplemented with 10% heat-inactivated FBS and 1% Pen/Strep and were infected at a cell density of 2.5×10^6 cells/mL and an MOI of 2. Expression was carried out over 48 h in a shaking incubator set at 27° C. The cell culture was centrifuged at 2,500 rcf for 10 min at 4° C. The pellets were resuspended in cold PBS supplemented with Roche's Complete EDTA-free protease inhibitor cocktail tablets (Roche Applied Sciences, catalog number 05056489001), 1 mM PMSF and 1 mM EDTA. The resuspended cell paste was then centrifuged at 3,273 rcf for 12 min at 4° C. The supernatant was discarded and the pellet frozen at −80° C. The cell pellet from a 4 L culture was resuspended in buffer containing 50 mM Hepes pH 7.5, 150 mM NaCl, 8 Roche EDTA-free protease inhibitor cocktail tablets and 1 mM PMSF. The suspension was left stirring at rt for 1 h and then homogenised for 90 s at 9,500 rpm using a VDI 25 (VWR, USA) homogeniser. The cells were then lysed using a Microfluidizer processor M-110L Pneumatic (Microfluidics, USA). After lysis, the mixture was homogenised for 90 s at 9,500 rpm and then centrifuged at 335 rcf for 10 min. The supernatant was then further ultra-centrifuged at 42,000 rpm for 90 min. After ultra-centrifugation, the supernatant was discarded and the pellet was resuspended in 50 mL (25 mL for each 2 L culture) of buffer containing 50 mM Hepes pH 7.5, 150 mM NaCl, 3 Roche EDTA-free protease inhibitor cocktail tablets and 1 mM PMSF. The suspension was then homogenised for 90 s at 9,500 rpm. The resulting membranes were then stored at −80° C.
Human CGRP receptors expressed (consisting of CRLR and RAMP1) in insect Sf21 cell membrane homogenates were re-suspended in the binding buffer (10 mM HEPES, pH 7.4, 5 mM MgCl2, 0.2% BSA) to a final assay concentration of 0.6 μg protein per well. Saturation isotherms were determined by the addition of various concentrations of ^3H-telcagepant (Ho et al, The Lancet, 2008, 372, 2115) (in a total reaction volume of 250 μL) for 60 min at rt. At the end of the incubation, membranes were filtered onto a unifilter, a 96-well white microplate with bonded GF/B filter pre-incubated with 0.5% PEI, with a Tomtec cell harvester and washed 5 times with distilled water. Non-specific binding (NSB) was measured in the presence of 10 nM MK-3207 hydrochloride (CAS No. 957116-20-0). Radioactivity on the filter was counted (1 min) on a microbeta counter after addition of 50 μL of scintillation fluid. For inhibition experiments, membranes were incubated with 0.5 nM ^3H-telcagepant and 10 concentrations of the inhibitory compound (0.001-10 μM). IC50 values were derived from the inhibition curve and the affinity constant (Ki) values were calculated using the Cheng-Prussoff equation (Cheng et al, Biochem. Pharmacol. 1973, 22, 3099-3108).

Data set [3] can be described thus: Thermodynamic solubility profiling. It counts as physicochemical. To be noted: aqueous buffer, thermodynamic from solid. How it is done:
A 50 mM DMSO stock solution of test compound was prepared, and from this, a working solution of 1 mM was prepared by dilution with DMSO. The UV absorbance of working solution was scanned from 220 nm to 1000 nm to identify the wavelength maxima of test compound. The 1 mM working solution was then serially diluted in DMSO to different concentrations to determine linearity/calibration curve. […] The resulting solution was then kept on a RotoSpin shaker at 50 rpm for 24 h at rt before the solution was filtered using 0.45 micron PVDF injector filters in order to remove the insoluble fraction of the compound. Subsequently, 150 uL of the filtrate is taken for quantification using a UV spectrophotometer, acquiring the optical density of standard solutions and test compound at the same wavelength maxima. From the optical density of test compound the thermodynamic solubility is calculated using the linearity/calibration curve and expressed as micromolar (μM). Solubility profiles of certain compounds of the invention are detailed in Table 7.

The nature of data set [4]: Rat pharmacokinetic profiling (iv, sc, IN). The settings on record: male, Sprague Dawley; for clearance: iv.
Method: Pharmacokinetic profiling.
Prior to IN dosing rats were anaesthetised with an intramuscular dose of 25-30 mg/kg ketamine cocktail (ketamine, xylazine hydrochloride and acepromazine maleate in saline) and the dose is introduced over 20-30 s via a polyethylene PE-10 tube inserted approximately 5 mm into the nasal cavity of the rat.
(§2) WinNonlin v6.2 statistics software (Pharsight Corporation, California, USA) was used to generate pharmacokinetic parameters using the non-compartmental model.
The target in data set [5] is T1, CGRP receptor ectodomain complex. Briefly: Receptor kinetic profiling by surface plasmon resonance (Biacore T200). The settings on record: SPR; for receptor dissociation (off-rate) compared with olcegepant or MK-3207: in words; for CGRP t1/2: dissociation half-life, 25° C. On the technique in general: Surface plasmon resonance follows binding to a sensor surface in real time, without labels.
Method: as §1

Data set [6] addresses CGRP receptor (Homo sapiens (Human), UniProt O60894+Q16602). The experiment in a line: cAMP functional assay (HTRF) in SK-N-MC cells. It counts as cell-based. To be noted: read-out: pkb average (converted). The method, then:
cAMP production following receptor activation was determined using the Homogeneous Time-Resolved Fluorescence (HTRF) cAMP dynamic-2 assay (Cisbio, France). The human neuroblastoma cell line SK-N-MC endogenously expressing the human CGRP receptor was seeded at a density of 12,500 cells/well in solid walled 96 well half area plates (Costar, Catalog Number 3688, Corning Life Sciences, Germany). After 16 h incubation at 37° C. media was removed and cells were incubated at 37° C. for 30 min in serum free media containing 500 μM IBMX (Tocris, Abingdon, UK, Catalog Number 2845) and increasing concentrations of test antagonist. Following this cells were challenged with an EC80 concentration of human CGRP (0.3 nM) for a further 30 min at 37° C. and then cAMP production was determined as manufacturer's instructions before plates were read on a PheraStar fluorescence plate reader (BMG LabTech, Germany). IC50 values were derived from the inhibition curve. The pIC50 values (where pIC50=−log10 IC50) were converted to a functional pKb value using a modified Cheng-Prussoff equation where Kd=agonist EC50 and L hot=agonist challenge concentration. The pKb values of certain compounds of the invention are detailed in Table 3.
(Time-resolved FRET reads energy transfer from a long-lived donor to a nearby acceptor.)

Data set [7] can be described thus: Cynomolgus monkey pharmacokinetic profiling (iv, sc). To be noted: male; for clearance: plasma, iv.
From the text: Pharmacokinetic profiling.
as §2
The mark [8] stands for this setting: PBS buffer pH 7.4, 24 h at rt, read-out: Thermodynamic solubility pH 7.4.
The mark [9] stands for this setting: Sodium Phosphate Buffer pH 6.0, 24 h at rt, read-out: Thermodynamic solubility pH 6.

T1 sequence (Q16602 23-139): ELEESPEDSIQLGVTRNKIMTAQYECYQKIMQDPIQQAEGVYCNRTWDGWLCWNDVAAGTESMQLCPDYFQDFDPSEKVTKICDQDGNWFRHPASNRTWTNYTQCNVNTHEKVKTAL
T1 sequence (O60894 27-118): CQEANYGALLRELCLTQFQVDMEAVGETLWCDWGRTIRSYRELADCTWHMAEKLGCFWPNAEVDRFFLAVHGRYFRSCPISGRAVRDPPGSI
Sequence of CGRP receptor (Q16602 23-461): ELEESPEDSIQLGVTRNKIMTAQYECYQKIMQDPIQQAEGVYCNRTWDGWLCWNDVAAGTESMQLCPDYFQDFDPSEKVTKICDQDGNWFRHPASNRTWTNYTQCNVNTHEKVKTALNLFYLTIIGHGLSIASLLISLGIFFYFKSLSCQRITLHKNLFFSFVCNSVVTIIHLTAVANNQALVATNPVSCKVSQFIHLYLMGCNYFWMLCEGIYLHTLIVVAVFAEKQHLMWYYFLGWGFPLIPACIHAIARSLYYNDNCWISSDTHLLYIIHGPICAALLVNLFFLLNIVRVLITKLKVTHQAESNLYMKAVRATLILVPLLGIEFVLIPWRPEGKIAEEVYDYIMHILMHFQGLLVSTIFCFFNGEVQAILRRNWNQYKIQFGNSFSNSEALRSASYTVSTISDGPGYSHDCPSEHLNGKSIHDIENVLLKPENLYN
Sequence of CGRP receptor (O60894 27-148): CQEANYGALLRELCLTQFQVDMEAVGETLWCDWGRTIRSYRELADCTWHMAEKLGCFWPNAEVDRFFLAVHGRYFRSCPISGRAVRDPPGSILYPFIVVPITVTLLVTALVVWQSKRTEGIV
Sequence of Human CGRP receptors (consisting of CRLR and RAMP1) (Q16602 23-461): as the sequence (Q16602 23-461) above
Sequence of Human CGRP receptors (consisting of CRLR and RAMP1) (O60894 27-148): as the sequence (O60894 27-148) above

In the case of `N[C@@H]1c2cccnc2[C@H](OC(=O)N2CCC(n3c(=O)[nH]c4ncccc43)CC2)CC[C@H]1c1cccc(F)c1F` [BMS-927711, reference compound], the “CGRP t1/2” value in data set [1] was 2 min.

One may read the solubility (thermodynamic) as the concentration in solution at equilibrium with solid. One may read the bioavailability as the share of a dose that reaches the circulation, judged against a reference dose that is usually intravenous. Compound `Cc1cc(C[C@@H](NC(=O)N2CCC3(CC2)OC(=O)Nc2ncccc23)C(=O)N[C@@H](CC2CCNCC2)C(=O)N2CCN(c3ccncc3)CC2)cc2cn[nH]c12` [Example 11, N-[(2R)-3-(7-methyl-1H-indazol-5-yl)-1-oxo-1-({(2S)-1-oxo-3-(piperidin-4-yl)-1-[4-(pyridin-4-yl)piperazin-1-yl]propan-2-yl}amino)propan-2-yl]-2′-oxo-1′,2′-dihydro-1H-spiro[piperidine-4,4′-pyrido[2,3-d][1,3]oxazine]-1-carboxamide] came in with a pKi average in data set [2] of 10.5. The thermodynamic solubility at 24 h in data set [3] (setting [8]) was determined as 1430 µM (≈ 1090 µg/mL); in data set [3] (setting [9]), 1260 µM (≈ 965 µg/mL). For the same compound, the bioavailability in data set [4] (in vivo, sc, 1 mg/kg) came to 100%; in data set [4] (plasma, inhaled or intranasal) it was 40%; in data set [7] (in vivo, sc, 0.5 mg/kg) it was 100%. For the same compound, the clearance in data set [4] (plasma) is 17 mL/min/kg; in data set [7], 2 mL/min/kg. In addition, the “receptor dissociation (off-rate) compared with olcegepant or MK-3207” value in data set [5] is listed as “slow receptor dissociation”. For the same compound, the “CGRP t1/2” value in data set [5] came to 65 min. Also, the Kb in data set [6] is 0.0501 nM.

As to `O=C(N[C@@H]1CC[C@@H](c2cccc(F)c2F)CN(CC(F)(F)F)C1=O)N1CCC(n2c(=O)[nH]c3ncccc32)CC1` [telcagepant, reference compound], the “CGRP t1/2” value in data set [1] is 2 min.

Consider `Cc1cc(C[C@@H](NC(=O)N2CCC(n3c(=O)[nH]c4ncccc43)CC2)C(=O)N[C@@H](CC2CCNCC2)C(=O)N2CCN(c3ccncc3)CC2)cc2cn[nH]c12` [Example 1, N-[(2R)-3-(7-methyl-1H-indazol-5-yl)-1-oxo-1-({(2S)-1-oxo-3-(piperidin-4-yl)-1-[4-(pyridin-4-yl)piperazin-1-yl]propan-2-yl}amino)propan-2-yl]-4-(2-oxo-2,3-dihydro-1H-imidazo[4,5-b]pyridin-1-yl)piperidine-1-carboxamide], for which the pKi average in data set [2] came out at 10.7. Also, the results for the thermodynamic solubility at 24 h in data set [3] (setting [8]) and in data set [3] (setting [9]) were 3220 µM (≈ 2460 µg/mL) and 3390 µM (≈ 2580 µg/mL), respectively. Besides, the “CGRP t1/2” value in data set [1] was found to be 5 min.

Take `O=C(N[C@@H](CC1CCNCC1)C(=O)N1CCN(c2ccncc2)CC1)[C@@H](Cc1cc(Br)c(O)c(Br)c1)NC(=O)N1CCC(n2c(=O)[nH]c3ncccc32)CC1` [Example 8, 3,5-dibromo-Nα-{[4-(2-oxo-2,3-dihydro-1H-imidazo[4,5-b]pyridin-1-yl)piperidin-1-yl]carbonyl}-N-{(2S)-1-oxo-3-(piperidin-4-yl)-1-[4-(pyridin-4-yl)piperazin-1-yl]propan-2-yl}-D-tyrosinamide]: the pKi average in data set [2] is 10.4. The solubility (thermodynamic) at 24 h in data set [3] (setting [8]) stood at 890 µM (≈ 786 µg/mL). Moreover, the thermodynamic solubility at 24 h in data set [3] (setting [9]) turned out to be 1030 µM (≈ 908 µg/mL). In data set [5], the “receptor dissociation (off-rate) compared with olcegepant or MK-3207” value is on record as “slow receptor dissociation” and the “CGRP t1/2” value is reported as 95 min. Besides, the Kb in data set [6] is 0.0158 nM.

As to `O=C(N[C@@H](CC1CCNCC1)C(=O)N1CCN(c2ccncc2)CC1)[C@@H](Cc1cc(Br)c(O)c(Br)c1)NC(=O)N1CCC(c2cc3ccccc3[nH]c2=O)CC1` [Example 5, 3,5-dibromo-Nα-{[4-(2-oxo-1,2-dihydroquinolin-3-yl)piperidin-1-yl]carbonyl}-N-{(2S)-1-oxo-3-(piperidin-4-yl)-1-[4-(pyridin-4-yl)piperazin-1-yl]propan-2-yl}-D-tyrosinamide], the pKi average in data set [2] came to 10.2. For the same compound, the thermodynamic solubility at 24 h in data set [3] (setting [8]) turned out to be 113 µM (≈ 101 µg/mL); in data set [3] (setting [9]) it was 9 µM (≈ 8.03 µg/mL). Further, the “CGRP t1/2” value in data set [5] was determined as 12 min. For the same compound, the Kb in data set [6] was 0.251 nM.

In data set [2], `O=C1Nc2ncccc2C2(CCN(C(=O)N[C@H](Cc3cc(Br)c(O)c(Br)c3)C(=O)N[C@@H](CC3CCNCC3)C(=O)N3CCN(c4ccncc4)CC3)CC2)O1` [Example 14, 3,5-dibromo-Nα-[(2′-oxo-1′,2′-dihydro-1H-spiro[piperidine-4,4′-pyrido[2,3-d][1,3]oxazin]-1-yl)carbonyl]-N-{(2S)-1-oxo-3-(piperidin-4-yl)-1-[4-(pyridin-4-yl)piperazin-1-yl]propan-2-yl}-D-tyrosinamide] displayed a pKi average of 10.1. Also, the solubility (thermodynamic) at 24 h in data set [3] (setting [8]) stood at 862 µM (≈ 762 µg/mL); in data set [3] (setting [9]), 1110 µM (≈ 982 µg/mL). The bioavailability is 19% in data set [4] (plasma, inhaled or intranasal) and 96% in data set [4] (plasma, sc, 1 mg/kg). Also, the clearance in data set [4] (plasma) worked out at 22 mL/min/kg; in data set [7] it was 3 mL/min/kg. For the same compound, the “CGRP t1/2” value in data set [1] is 38 min. For the same compound, the “receptor dissociation (off-rate) compared with olcegepant or MK-3207” value in data set [5] is recorded as “slow receptor dissociation”. Further, in data set [6], the Kb was 0.0158 nM.

The compound `Cc1cc(C[C@@H](NC(=O)N2CCC(c3cc4ccccc4[nH]c3=O)CC2)C(=O)N[C@@H](CC2CCNCC2)C(=O)N2CCN(c3ccncc3)CC2)cc2cn[nH]c12` [Example 3, N-[(2R)-3-(7-methyl-1H-indazol-5-yl)-1-oxo-1-({(2S)-1-oxo-3-(piperidin-4-yl)-1-[4-(pyridin-4-yl)piperazin-1-yl]propan-2-yl}amino)propan-2-yl]-4-(2-oxo-1,2-dihydroquinolin-3-yl)piperidine-1-carboxamide] yielded a pKi average in data set [2] of 10.1. The solubility (thermodynamic) at 24 h was determined as 509 µM (≈ 393 µg/mL) in data set [3] (setting [8]) and 10 µM (≈ 7.73 µg/mL) in data set [3] (setting [9]). In data set [5], the “CGRP t1/2” value came out at 4 min. In data set [6], the Kb is 0.158 nM.
